Measurements as given in US12612416B2, “Modulators of cystic fibrosis transmembrane conductance regulator” (VERTEX PHARMACEUTICALS INCORPORATED, priority 2020, dated 2026).
Read-outs that look alike come from different tables or passages of the source.

Legend:
[1] = molecular target: T1, CFTR-mediated short-circuit current in F508del/MF-HBE cells (Homo sapiens, UniProt P13569, DEL508-508); assay: HBE assay: Ussing chamber assay of CFTR-mediated short-circuit currents; assay type: cell-based; settings: 20% human serum; for HBE Max. activity / EC50: F508del/MF-HBE; for HBE Max. activity: in combination with 1 μM Ivacaftor, compared to known Vertex corrector with 18 μM Tezacaftor and 1 μM Ivacaftor; for EC50: range of concentrations in combination with 1 μM Ivacaftor; for EC50 / HBE Activity at 10 μM: 18-24 hours; for HBE Activity at 10 μM: single fixed concentration of 10 μM in combination with 1 μM Ivacaftor
T1 construct: endogenous in cells; host or cells: primary human bronchial epithelial cells from CF subjects (F508del/MF)
T1 sequence (P13569 with tags, fused parts or gaps DEL508-508): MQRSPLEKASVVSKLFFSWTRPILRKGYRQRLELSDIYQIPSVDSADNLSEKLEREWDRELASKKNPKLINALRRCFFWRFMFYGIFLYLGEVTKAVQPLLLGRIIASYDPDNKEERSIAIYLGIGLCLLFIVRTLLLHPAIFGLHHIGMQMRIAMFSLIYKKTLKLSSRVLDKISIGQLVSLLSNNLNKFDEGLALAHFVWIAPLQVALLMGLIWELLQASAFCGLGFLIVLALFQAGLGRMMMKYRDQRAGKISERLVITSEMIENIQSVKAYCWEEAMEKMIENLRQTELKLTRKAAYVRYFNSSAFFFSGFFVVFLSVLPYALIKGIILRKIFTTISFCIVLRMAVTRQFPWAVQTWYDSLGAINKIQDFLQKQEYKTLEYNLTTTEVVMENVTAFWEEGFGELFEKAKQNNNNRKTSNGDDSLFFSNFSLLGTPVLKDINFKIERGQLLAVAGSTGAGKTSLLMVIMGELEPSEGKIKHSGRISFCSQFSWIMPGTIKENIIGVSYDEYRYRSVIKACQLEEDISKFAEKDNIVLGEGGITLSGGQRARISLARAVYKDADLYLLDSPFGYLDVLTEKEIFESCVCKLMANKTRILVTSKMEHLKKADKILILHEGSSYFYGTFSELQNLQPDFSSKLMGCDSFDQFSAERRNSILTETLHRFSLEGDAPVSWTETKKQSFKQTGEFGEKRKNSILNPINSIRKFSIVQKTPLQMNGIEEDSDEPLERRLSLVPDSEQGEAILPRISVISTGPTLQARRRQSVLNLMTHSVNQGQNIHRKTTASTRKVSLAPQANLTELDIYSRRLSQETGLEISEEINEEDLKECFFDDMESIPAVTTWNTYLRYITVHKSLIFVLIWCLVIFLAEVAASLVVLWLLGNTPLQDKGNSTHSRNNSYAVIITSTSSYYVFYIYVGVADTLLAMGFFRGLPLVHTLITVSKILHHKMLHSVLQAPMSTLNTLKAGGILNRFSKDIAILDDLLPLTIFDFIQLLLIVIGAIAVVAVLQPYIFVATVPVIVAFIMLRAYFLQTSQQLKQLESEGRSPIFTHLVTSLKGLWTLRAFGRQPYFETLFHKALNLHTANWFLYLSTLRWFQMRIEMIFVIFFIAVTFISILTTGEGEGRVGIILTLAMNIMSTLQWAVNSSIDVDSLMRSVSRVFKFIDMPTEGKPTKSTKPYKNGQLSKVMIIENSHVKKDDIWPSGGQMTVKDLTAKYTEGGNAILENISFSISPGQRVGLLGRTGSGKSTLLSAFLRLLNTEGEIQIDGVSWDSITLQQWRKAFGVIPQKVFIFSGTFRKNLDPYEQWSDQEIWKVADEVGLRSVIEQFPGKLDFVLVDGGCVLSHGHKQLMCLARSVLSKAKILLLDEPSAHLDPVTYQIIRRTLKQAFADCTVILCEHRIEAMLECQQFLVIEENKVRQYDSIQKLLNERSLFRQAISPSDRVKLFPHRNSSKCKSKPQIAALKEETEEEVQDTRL
Experimental: Ussing chamber experiments were performed using human bronchial epithelial (HBE) cells derived from CF subjects heterozygous for F508del and a minimal function CFTR mutation (F508del/MF-HBE) and cultured as previously described (Neuberger T, Burton B, Clark H, Van Goor F Methods Mol Biol 2011:741:39-54). After four days the apical media was removed, and the cells were grown at an air liquid interface for >14 days prior to use.
To isolate the CFTR-mediated short-circuit (ISC) current, F508del/MF-HBE grown on Costar® Snapwell™ cell culture inserts were mounted in an Ussing chamber and the transepithelial ISC was measured under voltage-clamp recording conditions (Vhold=0 mV) at 37° C. The basolateral solution contained (in mM) 145 NaCl, 0.83K2HPO4, 3.3 KH2PO4, 1.2 MgCl2, 1.2 CaCl2), 10 Glucose, 10 HEPES (pH adjusted to 7.4 with NaOH) and the apical solution contained (in mM) 145 NaGluconate, 1.2 MgCl2, 1.2 CaCl2), 10 glucose, 10 HEPES (pH adjusted to 7.4 with NaOH) and 30 μM amiloride to block the epithelial sodium channel. Forskolin (20 μM) was added to the apical surface to activate CFTR, followed by apical addition of a CFTR inhibitor cocktail consisting of BPO, GlyH-101, and CFTR inhibitor 172 (each at 20 μM final assay concentration) to specifically isolate CFTR currents. The CFTR-mediated ISC (μA/cm^2) for each condition was determined from the peak forskolin response to the steady-state current following inhibition.
The activity of the CFTR corrector compounds on the CFTR-mediated ISC was determined in Ussing chamber studies as described above. The F508del/MF-HBE cell cultures were either incubated with the corrector compounds at a range of concentrations in combination with 1 μM Ivacaftor or were incubated with the corrector compounds at a single fixed concentration of 10 μM in combination with 1 μM Ivacaftor for 18-24 hours at 37° C. and in the presence of 20% human serum. The concentration of corrector compounds with 1 μM Ivacaftor during the 18-24 hours incubations was kept constant throughout the Ussing chamber measurement of the CFTR-mediated ISC to ensure compounds were present throughout the entire experiment.

[2] = amide bond, 13-membered ring, DMF
[3] = molecular target: CFTR-mediated chloride transport in human intestinal epithelial enteroid cells (Homo sapiens, UniProt P13569); assay: Membrane potential dye, Enteroid Assay A; assay type: cell-based; settings: % of chloride transport of triple combination control: 3 μM (S)-N-((6-aminopyridin-2-yl)sulfonyl)-6-(3-fluoro-5-isobutoxyphenyl)-2-(2,2,4-trimethylpyrrolidin-1-yl)nicotinamide, 3 μM tezacaftor, 300 nM acute ivacaftor
Sequence of CFTR-mediated chloride transport in human intestinal epithelial enteroid cells (P13569 with tags, fused parts or gaps DEL508-508): as above
Experimental: Base medium (ADF+++) consisted of Advanced DMEM/Ham's F12, 2 mM Glutamax, 10 mM HEPES, […] penicillin/streptomycin.
Intestinal enteroid maintenance medium (IEMM) consisted of ADF+++, 1×B27 supplement, 1×N2 supplement, 1.25 mM N-acetyl cysteine, 10 mM Nicotinamide, 50 ng/mL hEGF, 10 nM Gastrin, 1 μg/mL hR-spondin-1, 100 ng/mL hNoggin, TGF-b type 1 inhibitor A-83-01, 100 μg/mL Primocin, 10 μM P38 MAPK inhibitor SB202190.
Bath 1 Buffer consisted of 1 mM MgCl2, 160 mM NaCl, 4.5 mM KCl, 10 mM HEPES, 10 mM Glucose, 2 mM CaCl2).
Chloride Free Buffer consisted of 1 mM Magnesium Gluconate, 2 mM Calcium Gluconate, 4.5 mM Potassium Gluconate, 160 mM Sodium Gluconate, 10 mM HEPES, 10 mM Glucose.
BathI Dye Solution consisted of Bath 1 Buffer, 0.04% Pluronic F127, 20 μM Methyl Oxonol, 30 μM CaCCinh-A01, 30 μM Chicago Sky Blue.
Chloride Free Dye Solution consisted of Chloride Free Buffer, 0.04% Pluronic F127, 20 μM Methyl Oxonol, 30 μM CaCCinh-A01, 30 μM Chicago Sky Blue.
Chloride Free Dye Stimulation Solution consisted of Chloride Free Dye Solution, 10 μM forskolin, 100 μM IBMX, and 300 nM Compound III.
Human intestinal epithelial enteroid cells were obtained from the Hubrecht Institute for Developmental Biology and Stem Cell Research, Utrecht, The Netherlands and expanded in T-Flasks as previously described (Dekkers J F, Wiegerinck C L, de Jonge H R, Bronsveld I, Janssens H M, de Winter-de Groot K M, Brandsma A M, de Jong N W M, Bijvelds M J C, Scholte B J, Nieuwenhuis E E S, van den Brink S, Clevers H, van der Ent C K, Middendorp S and M Beekman J M. A functional CFTR assay using primary cystic fibrosis intestinal organoids. Nat Med. 2013 July; 19(7):939-45.).
Cells were recovered in cell recovery solution, collected by centrifugation at 650 rpm for 5 minutes at 4° C., resuspended in TrypLE and incubated for 5 minutes at 37° C. Cells were then collected by centrifugation at 650 rpm for 5 minutes at 4° C. and resuspended in IEMM containing 10 μM ROCK inhibitor (RI). The cell suspension was passed through a 40 μm cell strainer and resuspended at 1×10^6 cells/mL in IEMM containing 10 μM RI. Cells were seeded at 5000 cells/well into multi-well plates and incubated for overnight at 37° C., 95% humidity and 5% CO2 prior to assay.
Enteroid cells were incubated with test compound in IEMM for 18-24 hours at 37° C., 95% humidity and 5% C02. […] Briefly, cells were washed 5 times in Bath 1 Buffer. Bath 1 Dye Solution was added, and the cells were incubated for 25 minutes at room temperature. Following dye incubation, cells were washed 3 times in Chloride Free Dye Solution. Chloride transport was initiated by addition of Chloride Free Dye Stimulation Solution and the fluorescence signal was read for 15 minutes. […] Chloride transport was then expressed as a percentage of the chloride transport following treatment with 3 μM (S)—N-((6-aminopyridin-2-yl)sulfonyl)-6-(3-fluoro-5-isobutoxyphenyl)-2-(2,2,4-trimethylpyrrolidin-1-yl)nicotinamide, 3 μM (R)-1-(2,2-difluorobenzo[d][1,3]dioxol-5-yl)-N-(1-(2,3-dihydroxypropyl)-6-fluoro-2-(1-hydroxy-2-methylpropan-2-yl)-1H-indol-5-yl)cyclopropanecarboxamide and 300 nM acute N-[2,4-bis(1,1-dimethylethyl)-5-hydroxyphenyl]-1,4-dihydro-4-oxoquinoline-3-carboxamide triple combination control (% Activity).

SMILES	HBE Max. activity [1]	EC50 [1] [µM]	HBE Activity at 10 μM [1]	other results
Cc1cccc(C)c1-c1cc2nc(n1)NS(=O)(=O)c1cccc(c1)C(=O)N(Cc1ncc(OC3CCC3)cn1)[C@H](CC(C)C)CC2 [Compound 59]	+++ (+++ is >60%)	< 1	–	–
Cc1cccc(C)c1-c1cc2nc(n1)NS(=O)(=O)c1cccc(c1)C(=O)N([C@H]1CC3(C1)C[C@H](C(C)(C)O)C3)[C@H](CC(C)(C)C)CC2 (single isomer, unassigned) [Compound 65]	–	–	+++ (+++ is >60%)	–
Cc1cccc(C)c1-c1cc2nc(n1)NS(=O)(=O)c1cccc(c1)C(=O)N([C@H]1CC3(C1)C[C@H](C(C)(C)O)C3)[C@H](CC(C)(C)C)CC2 (single isomer, unassigned) [Compound 66]	–	–	+++ (+++ is >60%)	–
Cc1cccc(C)c1-c1cc2nc(n1)NS(=O)(=O)c1cccc(c1)C(=O)N(Cc1ncc(OC(C)C)cn1)[C@H](CC(C)(C)C)CC2 [Compound 62, (11S)-6-(2,6-Dimethylphenyl)-11-(2,2-dimethylpropyl)-12-[(5-isopropoxypyrimidin-2-yl)methyl]-2,2-dioxo-2 λ6-thia-3,5,12,19-tetrazatricyclo[12.3.1.14,8]nonadeca-1(18),4(19),5,7,14,16-hexaen-13-one]	+++ (+++ is >60%)	< 1	–	ring closure, yield after HPLC ([2]; from Cc1cccc(C)c1-c1cc(CC[C@@H](CC(C)(C)C)NCc2ncc(OC(C)C)cn2)nc(NS(=O)(=O)c2cccc(C(=O)O)c2)n1, CDMT/NMM, 47.5 mM, 18.0 h): 79%
Cc1cccc(C)c1-c1cc2nc(n1)NS(=O)(=O)c1cccc(c1)C(=O)NC(CC(C)C)CN2 (centres unmarked) [Compound 37, 6-(2,6-Dimethylphenyl)-11-isobutyl-2,2-dioxo-2 λ6-thia-3,5,9,12,19-pentazatricyclo[12.3.1.14,8]nonadeca-1(18),4(19),5,7,14,16-hexaen-13-one]	–	–	–	Ent. A Max Activity [3]: + (+ is <30%); ring closure, yield after HPLC ([2]; from Cc1cccc(C)c1-c1cc(NCC(N)CC(C)C)nc(NS(=O)(=O)c2cccc(C(=O)O)c2)n1, HATU/Et3N, 50.6 mM, 0.5 h): 67%
Cc1cccc(C)c1-c1cc2nc(n1)NS(=O)(=O)c1cccc(c1)C(=O)N(C1CC3(CC3)C1)[C@H](CC(C)(C)C)CC2 [Compound 63]	–	–	+++ (+++ is >60%)	–
Cc1cccc(C)c1-c1cc2nc(n1)NS(=O)(=O)c1cccc(c1)C(=O)N(Cc1ncc(OC(C)C)cn1)[C@H](CC(C)C)CC2 [Compound 58]	+++ (+++ is >60%)	< 1	–	–
Cc1cccc(C)c1-c1cc2nc(n1)NS(=O)(=O)c1cccc(c1)C(=O)N(Cc1ncc(OC3CCC3)cn1)[C@H](CC(C)(C)C)CC2 [Compound 64, (11S)-12-[[5-(Cyclobutoxy)pyrimidin-2-yl]methyl]-6-(2,6-dimethylphenyl)-11-(2,2-dimethylpropyl)-2,2-dioxo-2λ6-thia-3,5,12,19-tetrazatricyclo[12.3.1.14,8]nonadeca-1(18),4(19),5,7,14,16-hexaen-13-one]	–	–	+++ (+++ is >60%)	ring closure, yield after HPLC ([2]; from Cc1cccc(C)c1-c1cc(CC[C@@H](CC(C)(C)C)NCc2ncc(OC3CCC3)cn2)nc(NS(=O)(=O)c2cccc(C(=O)O)c2)n1, CDMT/NMM, 44.1 mM, 17.0 h): 73%
Cc1cccc(C)c1-c1cc2nc(n1)NS(=O)(=O)c1cccc(c1)C(=O)N(Cc1nccc(N(C)C(C)C)n1)[C@H](CC(C)C)CC2 [Compound 60, (11S)-6-(2,6-dimethylphenyl)-11-isobutyl-12-[[4-[isopropyl(methyl)amino]pyrimidin-2-yl]methyl]-2,2-dioxo-2λ^6-thia-3,5,12,19-tetrazatricyclo[12.3.1.14,8]nonadeca-1(18),4(19),5,7,14,16-hexaen-13-one]	+++ (+++ is >60%)	< 1	–	ring closure, yield after HPLC ([2]; from Cc1cccc(C)c1-c1cc(CC[C@@H](CC(C)C)NCc2nccc(N(C)C(C)C)n2)nc(NS(=O)(=O)c2cccc(C(=O)O)c2)n1, HATU/DIEA, 12.4 mM, 25.0 °C, 2.0 h): 49%
